This is an account of results in PubChem BioAssay AID1626 (SRMLSC, 2009).

pIC50: −log10 of the molar value.

This experiment concerns M. tuberculosis H37Rv growth inhibition. Kind of experiment: M. tuberculosis H37Rv growth inhibitors, H37Rv strain (AID 1626). Conditions: for CC50: measured here: Vero cell cytotoxicity; for IC90: measured here: IC90 against H37Rv.

The molecule `Cc1ccc(-n2c(C)nc3c(cnn3-c3ccc(C)c(C)c3)c2=O)cc1C` gave a CC50 of more than 40 µM.
Consider `O=C(Nc1cccc(NC(=O)c2cccs2)c1)c1ccc([N+](=O)[O-])o1`, for which the pIC50 is 5.10, the IC90 came to 14.3 µM and the CC50 stood at 13.8 µM.
The molecule `CCc1ccccc1NC(=O)c1cccc(NC(=O)/C=C/c2ccco2)c1` came in with a CC50 of more than 40 µM.
For the molecule `Cc1cc(-n2c(C)cc(C(=O)COc3ccc4ccc(=O)oc4c3)c2C)no1`, the negative-log IC50 (pIC50) was 5.09, the IC90 was more than 100 µM and the CC50 is more than 40 µM.
Take `CC(C)(C)c1ccc(C(=O)CC(=O)c2cc(Cl)ccc2O)cc1`: the negative-log IC50 (pIC50) was 5.57, the concentration for an effect of 90% (IC90) was 3.14 µM and the half-maximal cytotoxic concentration (CC50) amounted to 12.4 µM.
For `COc1cc(N=C2C(=O)N3c4c(cccc42)C(C)=CC3(C)C)cc(OC)c1`, the pIC50 is 4.33 and the IC90 is more than 100 µM.
The corresponding values for `COc1ccc(OCC(=O)Nc2ccc3nc(C)sc3c2)cc1` are 4.97 and more than 100 µM.
In the case of `O=C(COC(=O)c1ccccc1Br)Nc1ccccc1F`, the IC90 is more than 100 µM.
As to `CCOC(=O)c1cc(-c2csc(COc3ccccc3Cl)n2)on1`, the pIC50 is more than 6.71 and the 90% effect concentration (IC90) came out at 3.52 µM.
`Cn1ccnc1C(O)c1cc(C(C)(C)C)c(O)c(C(C)(C)C)c1` (centres undefined): the pIC50 was 4.99 and the IC90 was 13.8 µM.
For the molecule `CCCCC(=O)OCC(=O)Nc1ccc(SC(F)F)cc1`, the IC90 was more than 100 µM.
As for `O=C(/C=C/c1ccccc1)C1C(=O)c2ccccc2C1=O`, the pIC50 was 4.63, the IC90 came out at 26.5 µM and the CC50 came out at 32.1 µM.
For `c1ccc(N2CCN(c3nc(-c4ccccn4)nc4ccccc34)CC2)cc1`, in that order: 6.03, 1.62 µM and 25.9 µM.
As to `COc1ccc(NCC(=O)Nc2ccc(Cl)cc2C)c(OC)c1`, the pIC50 is 4.56 and the concentration for an effect of 90% (IC90) is more than 100 µM.
Consider `CN(C)c1ccc(C(=O)Nc2nnc(C3=COCCO3)o2)cc1`, for which the pIC50 was 4.63, the IC90 was 26.7 µM and the cytotoxic concentration (CC50) is more than 40 µM.
The corresponding values for `O=C1c2ccccc2C(Nc2ccc(-c3nc4ccccc4[nH]3)cc2)N1Cc1ccco1` (centres undefined) are 5.04, 20.8 µM and more than 40 µM.
Consider `Cc1ccc(Oc2nc(-c3ccccn3)nc3ccccc23)cc1`, for which the pIC50 was 5.59, the IC90 worked out at 10.5 µM and the CC50 came out at 22.4 µM.
For `O=C1C2C(c3ccccc3)(C(=O)N1c1ccc(Cl)cc1)C2(c1ccccc1)c1ccccc1` (centres undefined), in that order: 4.65, more than 100 µM and more than 40 µM.
The corresponding values for `O=C1CCCCc2sc(Br)c([N+](=O)[O-])c2N1` are 5.07, 15.4 µM and 14.4 µM.
The corresponding values for `N#C/C(=C(/O)COC(=O)CCC1CCCCC1)c1nc2ccccc2[nH]1` are 4.69, 25.1 µM and more than 40 µM.
Consider `Cc1ccc(NC(=O)COC(=O)C2=COCCO2)c([N+](=O)[O-])c1`, for which the pIC50 was 5.20 and the IC90 was more than 100 µM.
Turning to `COc1ccc(N2C(=O)C(F)(F)C2c2ccccc2F)cc1` (centres undefined), the pIC50 was 5.24 and the IC90 was 12.1 µM.
For `CCCCCC(=O)c1ccc(O)cc1O`, in that order: 4.20 and more than 100 µM.
Consider `N=C1SCC(=O)N1c1ncc(Cc2ccccc2Cl)s1`, for which the pIC50 was more than 6.41, the concentration for an effect of 90% (IC90) came to 15.9 µM and the CC50 is more than 40 µM.
`O=C(Nc1nc(-c2ccc(F)cc2)cs1)c1cnccn1`: the IC90 is more than 100 µM and the CC50 is more than 40 µM.
`O=C(Nc1nccs1)c1cc2c(s1)CCCCC2`: the pIC50 is 5.25, the IC90 was 25 µM and the CC50 was more than 40 µM.
With `CCc1c(O)nc(SCC(=O)Nc2ccc3c(c2)CCC3)[nH]c1=O`, the pIC50 is 4.24 and the IC90 was more than 100 µM.
For the molecule `COc1ccc(-c2noc(CCC(=O)Nc3ccc4c(c3)OCCO4)n2)cc1`, the pIC50 is 4.51 and the IC90 is more than 100 µM.
With `CCOC(=O)c1cnn(-c2nc3c(C)cccc3s2)c1C(F)(F)F`, the pIC50 was 4.26, the 90% effect concentration (IC90) is more than 100 µM and the cytotoxic concentration (CC50) is more than 40 µM.
The corresponding values for `Cc1ccc(C(=O)/C=C/c2ccccc2[N+](=O)[O-])cc1` are 5.38, 7.62 µM and 26.5 µM.
In the case of `CCC/C(O)=C1\C(=O)CCCC1=NCCc1c(C)[nH]c2ccc(C)cc12`, the concentration for an effect of 90% (IC90) was more than 100 µM.
Take `c1ccc(-c2nnc(SCc3nnc(-c4cccs4)o3)o2)cc1`: the pIC50 was 5.20 and the IC90 was 11.6 µM.
Regarding `O=C(Nc1nc(-c2ccccn2)cs1)C12CC3CC(CC(O)(C3)C1)C2`, the pIC50 was 5.44, the IC90 worked out at 7.8 µM and the half-maximal cytotoxic concentration (CC50) was more than 40 µM.
The corresponding values for `N#CC1=C(c2ccccc2)/C(=C/c2ccccc2)OC1=O` are 4.75, more than 100 µM and 15.4 µM.
For `Nc1c(C(=O)NC2CCCCC2)nsc1C(=O)OCC(=O)NC1CCCCC1`, in that order: 5.69, more than 100 µM and more than 40 µM.
Molecule `O=C(Nc1nc2ccccc2s1)C1c2ccccc2Oc2ccccc21` displayed a concentration for an effect of 90% (IC90) of more than 100 µM and a CC50 of more than 40 µM.
As to `CC(C)NCC(O)Cn1c2c(c3ccccc31)CCc1c-2cnn1-c1ccccc1` (centres undefined), the pIC50 was 4.99, the IC90 came to 13.6 µM and the CC50 turned out to be 7.97 µM.
The corresponding values for `Fc1cccc2sc(Nc3nnc(-c4ccco4)o3)nc12` are more than 6.71, 3.19 µM and 36.4 µM.
The corresponding values for `O=C(c1ccc2c3c(cccc13)CC2)C1CCCN(Cc2ccccn2)C1` (centres undefined) are 5.00, more than 100 µM and more than 40 µM.
Take `CN(Cc1nc2ccccc2c(=O)[nH]1)Cc1nc2ccsc2c(=O)[nH]1`: the pIC50 is 5.71 and the IC90 amounted to 4.36 µM.
As to `COc1ccc(Cn2c(O)c(/C=C3/C=CC=N3)c(=O)[nH]c2=O)cc1`, the pIC50 was 6.57, the IC90 is more than 100 µM and the CC50 was more than 40 µM.
`Nc1nnc(Sc2ncccc2[N+](=O)[O-])s1`: the pIC50 was 5.02 and the IC90 stood at 12.9 µM.
As for `Nc1ncnc2c1ccn2[C@@H]1O[C@H](CO)[C@@H](O)[C@H]1O`, the pIC50 was 5.61, the IC90 stood at 3.87 µM and the half-maximal cytotoxic concentration (CC50) was found to be 0.131 µM.
For `O=C1CC(/C=C/c2ccc(Cl)cc2)=Nc2ccccc2N1`, in that order: 5.17, more than 100 µM and 38.6 µM.
The corresponding values for `Cc1ccc(N=Nc2ccc(O)c3ncccc23)cc1C` are 4.85, more than 100 µM and 3.1 µM.
The corresponding values for `Cc1nn2c(NCCCn3ccnc3)cc(C(C)C)nc2c1-c1ccccc1` are 5.12, 11.9 µM and 26.4 µM.
The molecule `Cc1cccc(-n2c(/C=C/c3ccc([N+](=O)[O-])o3)nc3ccccc3c2=O)c1` had an IC90 of more than 100 µM and a CC50 of 28.7 µM.
As to `O=C(OCc1nc2ccccc2s1)c1ccc(Br)o1`, the negative-log IC50 (pIC50) is 4.90 and the IC90 is more than 100 µM.
For `CCOc1[nH]n(-c2ccccc2)c(=O)c1C=Nc1ccc(OC)cc1`, the IC90 is more than 100 µM.
On to `O=C(Oc1ccc(Cl)c2cccnc12)C12CC3CC(CC(C3)C1)C2`, for which the pIC50 was 5.34, the IC90 stood at 5.77 µM and the CC50 was more than 40 µM.
Take `CCOC(=O)c1ccc(NC(=O)CCOc2ccc(C)cc2)cc1`: the pIC50 was 4.68 and the IC90 was more than 100 µM.
The corresponding values for `CC(=O)OCCNc1cc(SCc2ccco2)c2nonc2c1[N+](=O)[O-]` are 6.18 and 1.66 µM.
`COc1ccc(C[C@H]2CN3C(=NC[C@H]3Cc3ccccc3)N2CCNC(=O)CCC2CCCCC2)cc1`: the pIC50 was 4.96, the IC90 amounted to 12.3 µM and the CC50 amounted to 29 µM.
For `CC(C)Cc1cc(C(=O)Nc2cc(Br)ccc2O)no1`, in that order: 5.41, more than 100 µM and 26.5 µM.
`COc1ccc(OCc2nn3c(-c4cccc(OC)c4)nnc3s2)cc1` displayed an IC90 of more than 100 µM.
As to `CCCCCCc1ccc(OCC(=O)OC)cc1OCC(=O)OC`, the pIC50 is 5.74 and the 90% effect concentration (IC90) was 20.1 µM.
In the case of `CCN(CC)C(=O)CSc1nnc2nnc3cc(Cl)ccc3n12`, the pIC50 was 5.91, the IC90 was found to be 7.51 µM and the CC50 was 19.8 µM.
The corresponding values for `COc1cccc(C(=O)Oc2ccccc2/C=C\C(=O)c2cc3ccccc3o2)c1` are 5.46, 5.83 µM and 11.4 µM.
`CCC1CCCCN1C(=O)COC(=O)c1cc2ccccc2cc1O` (centres undefined): the pIC50 was 5.90 and the IC90 was 4.34 µM.
On to `N=C1SC(c2ccccc2)C(=O)N1c1ncc(Cc2ccccc2Cl)s1` (centres undefined), for which the pIC50 was 4.15, the IC90 was more than 100 µM and the CC50 was determined as 29.5 µM.
As for `Nc1cccc(-c2cc3ccccc3oc2=O)c1`, the pIC50 was 4.53 and the 90% effect concentration (IC90) is more than 100 µM.
As to `CN(C)c1ccc(O)c2c1CC1CC3[C@@H](N(C)C)C(=O)C(C(N)=O)=C(O)[C@]3(O)C(=O)C1=C2O` (some centres undefined), the pIC50 was 5.50, the concentration for an effect of 90% (IC90) was determined as 7.87 µM and the CC50 is more than 40 µM.
The corresponding values for `Cc1ccc(-c2cc(C(F)F)n3ncc(C(=O)Nc4c(C)nn(Cc5ccccc5Cl)c4C)c3n2)cc1` are 5.67, more than 100 µM and 24.4 µM.
Consider `O=C(c1ccc(Cl)cc1)C1CCCN(Cc2cnn(-c3ccccc3)c2)C1` (centres undefined), for which the negative logarithm of the IC50 (pIC50) is 5.06 and the IC90 came to 11.5 µM.
Regarding `Cn1c(NC(=O)c2cccc(Cn3cc(Cl)cn3)c2)nc2ccccc21`, the CC50 is more than 40 µM.
Take `O=C(CSc1ncnc2sc3c(c12)CCCC3)N1CCC(c2noc3ccc(F)cc23)CC1`: the pIC50 was 5.53, the IC90 came to 4.24 µM and the CC50 was more than 40 µM.

The term CC50 denotes the concentration that lowers cell viability or growth by half. A low value points to harm at low concentration. As a reminder, the pIC50 is −log10 of the IC50, conventionally taken in molar units. As a reminder, the IC90 is the point of the concentration-response curve where the effect stands at 90%.
